Experimental data as given in patent publication US6525001B1, “Substituted pyrimidine and pyridine herbicides” (Mid-American Commercialization Corporation, priority 1997, dated 2003).

What was measured:
Assay type in all cases: in vivo
Parameters in all cases: key: 0 is no effect; 10 is complete control
[1] = tested on: bedstraw (Galium aparine); experiment: Test B pre-/postemergence
Description: (§1) Seeds of bedstraw (Galium aparine), blackgrass (Alopecurus myosuroides), broadleaf signalgrass (Brachiaria decumbens), cocklebur (Xanthium strumarium), corn (Zea mays), crabgrass (Digitaria sanguinalis), giant foxtail (Setaria faberii), lambsquarters (Chenopodium album), momingglory (Ipomoea hederacea), pigweed (Amaranthus retroflexus), rape (Brassica napus), soybean (Glycine max), sugar beet (Beta vulgaris), velvetleaf (Abutilon theophrasti), wheat (Triticum aestivum), wild oat (Avena fatua) and purple nutsedge (Cyperus rotundus) tubers were planted and treated preemergence with test chemicals formulated in a non-phytotoxic solvent mixture which included a surfactant.
(§2) At the same time, these crop and weed species were also treated with postemergence applications of test chemicals formulated in the same manner. Plants ranged in height from 2 to 18 cm (1- to 4-leaf stage) for postemergence treatments. Plant species in the flood test consisted of rice (Oryza sativa), smallflower flatsedge (Cyperus difformis), duck salad (Heteranthera limosa) and bamyardgrass (Echinochloa crus-galli) grown to the 2-leaf stage for testing. Treated plants and controls were maintained in a greenhouse for twelve to sixteen days, after which all species were compared to controls and visually evaluated. Plant response ratings, summarized in Table B, are based on a scale of 0 to 10 where 0 is no effect and 10 is complete control. A dash (−) response means no test result.

[2] = tested on: blackgrass (Alopecurus myosuroides); experiment: Test B pre-/postemergence
Description: as §1, §2

[3] = tested on: broadleaf signalgrass (Brachiaria decumbens); experiment: Test B pre-/postemergence
Description: as §1, §2

[4] = tested on: cocklebur (Xanthium strumarium); experiment: Test B pre-/postemergence; settings: Preemergence
Description: as §1, §2

corn (Zea mays) = experiment: Test B pre-/postemergence
Description: as §1, §2

[5] = tested on: crabgrass (Digitaria sanguinalis); experiment: Test B pre-/postemergence
Description: as §1, §2

[6] = tested on: giant foxtail (Setaria faberii); experiment: Test B pre-/postemergence
Description: as §1, §2

[7] = tested on: momingglory (Ipomoea hederacea); experiment: Test B pre-/postemergence
Description: as §1, §2

[8] = tested on: pigweed (Amaranthus retroflexus); experiment: Test B pre-/postemergence
Description: as §1, §2

[9] = tested on: purple nutsedge (Cyperus rotundus); experiment: Test B pre-/postemergence
Description: as §1, §2

rape (Brassica napus) = experiment: Test B pre-/postemergence
Description: as §1, §2

soybean (Glycine max) = experiment: Test B pre-/postemergence
Description: as §1, §2

[10] = tested on: sugar beet (Beta vulgaris); experiment: Test B pre-/postemergence
Description: as §1, §2

[11] = tested on: velvetleaf (Abutilon theophrasti); experiment: Test B pre-/postemergence
Description: as §1, §2

[12] = tested on: wheat (Triticum aestivum); experiment: Test B pre-/postemergence
Description: as §1, §2

wild oat (Avena fatua) = experiment: Test B pre-/postemergence
Description: as §1, §2

[13] = tested on: bamyardgrass (Echinochloa crus-galli); experiment: Test B flood test
In short: (§3)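 Read-out is a visual response score from 0 (no effect) to 10 (complete control), assigned by comparison with untreated controls. Treatment was applied at the 2-leaf stage, and plants stayed in the greenhouse for twelve to sixteen days before scoring.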

[14] = tested on: duck salad (Heteranthera limosa); experiment: Test B flood test
In short: as §3

rice (Oryza sativa) = experiment: Test B flood test
In short: as §3

[15] = tested on: smallflower flatsedge (Cyperus difformis); experiment: Test B flood test
In short: as §3

[16] = Rate 125 g/ha, Postemergence, flood test
[17] = Rate 250 g/ha, Postemergence (flood test species)
[18] = Rate 500 g/ha, Postemergence (flood test species)

## Cc1cnc(-c2ccccc2)nc1Cn1ccc(C(F)(F)F)n1 [Compound 7]
[1]; Rate 125 g/ha, Postemergence
  Plant response rating, Bedstraw: 3
[1]; Rate 125 g/ha, Preemergence
  Bedstraw plant response rating: 0
[1]; Rate 250 g/ha, Postemergence
  Plant response rating, Bedstraw: 3
[1]; Rate 250 g/ha, Preemergence
  Plant response rating, Bedstraw: 0
[1]; Rate 500 g/ha, Postemergence
  Plant response rating, Bedstraw: 3
[1]; Rate 500 g/ha, Preemergence
  Plant response rating, Bedstraw: 0
[2]; Rate 125 g/ha, Postemergence
  Plant response rating, Blackgrass: 0
[2]; Rate 125 g/ha, Preemergence
  Blackgrass plant response rating: 0
[2]; Rate 250 g/ha, Preemergence
  Plant response rating, Blackgrass: 0
[2]; Rate 500 g/ha, Postemergence
  Plant response rating, Blackgrass: 1
[2]; Rate 500 g/ha, Preemergence
  Plant response rating, Blackgrass: 0
[3]; Rate 125 g/ha, Postemergence
  Plant response rating, B. signalgrass: 1
[3]; Rate 125 g/ha, Preemergence
  B. signalgrass plant response rating: 0
[3]; Rate 250 g/ha, Postemergence
  Plant response rating, B. signalgrass: 1
[3]; Rate 250 g/ha, Preemergence
  Plant response rating, B. signalgrass: 0
[3]; Rate 500 g/ha, Postemergence
  Plant response rating, B. signalgrass: 1
[3]; Rate 500 g/ha, Preemergence
  Plant response rating, B. signalgrass: 0
[4]; Rate 125 g/ha
  Cocklebur plant response rating: 0
[4]; Rate 250 g/ha
  Plant response rating, Cocklebur: 0
[4]; Rate 500 g/ha
  Plant response rating, Cocklebur: 0
Corn (Zea mays); Rate 125 g/ha, Postemergence
  Plant response rating, Corn: 1
Corn (Zea mays); Rate 125 g/ha, Preemergence
  Corn plant response rating: 0
Corn (Zea mays); Rate 250 g/ha, Postemergence
  Plant response rating, Corn: 2
Corn (Zea mays); Rate 250 g/ha, Preemergence
  Plant response rating, Corn: 0
Corn (Zea mays); Rate 500 g/ha, Postemergence
  Plant response rating, Corn: 2
Corn (Zea mays); Rate 500 g/ha, Preemergence
  Plant response rating, Corn: 0
[5]; Rate 125 g/ha, Postemergence
  Plant response rating, Crabgrass: 0
[5]; Rate 125 g/ha, Preemergence
  Crabgrass plant response rating: 0
[5]; Rate 250 g/ha, Postemergence
  Plant response rating, Crabgrass: 2
[5]; Rate 250 g/ha, Preemergence
  Plant response rating, Crabgrass: 1
[5]; Rate 500 g/ha, Postemergence
  Plant response rating, Crabgrass: 2
[5]; Rate 500 g/ha, Preemergence
  Plant response rating, Crabgrass: 2
[6]; Rate 125 g/ha, Postemergence
  Plant response rating, Giant foxtail: 1
[6]; Rate 125 g/ha, Preemergence
  Giant foxtail plant response rating: 0
[6]; Rate 250 g/ha, Postemergence
  Plant response rating, Giant foxtail: 1
[6]; Rate 250 g/ha, Preemergence
  Plant response rating, Giant foxtail: 1
[6]; Rate 500 g/ha, Postemergence
  Plant response rating, Giant foxtail: 1
[6]; Rate 500 g/ha, Preemergence
  Plant response rating, Giant foxtail: 5
[7]; Rate 125 g/ha, Postemergence
  Plant response rating, Morningglory: 1
[7]; Rate 125 g/ha, Preemergence
  Morningglory plant response rating: 0
[7]; Rate 250 g/ha, Postemergence
  Plant response rating, Morningglory: 2
[7]; Rate 250 g/ha, Preemergence
  Plant response rating, Morningglory: 0
[7]; Rate 500 g/ha, Postemergence
  Plant response rating, Morningglory: 5
[7]; Rate 500 g/ha, Preemergence
  Plant response rating, Morningglory: 0
[8]; Rate 125 g/ha, Postemergence
  Plant response rating, Redroot pigweed: 3
[8]; Rate 125 g/ha, Preemergence
  Redroot pigweed plant response rating: 0
[8]; Rate 250 g/ha, Postemergence
  Plant response rating, Redroot pigweed: 7
[8]; Rate 250 g/ha, Preemergence
  Plant response rating, Redroot pigweed: 2
[8]; Rate 500 g/ha, Postemergence
  Plant response rating, Redroot pigweed: 7
[8]; Rate 500 g/ha, Preemergence
  Plant response rating, Redroot pigweed: 2
[9]; Rate 125 g/ha, Postemergence
  Plant response rating, Nutsedge: 0
[9]; Rate 125 g/ha, Preemergence
  Nutsedge plant response rating: 0
[9]; Rate 250 g/ha, Postemergence
  Plant response rating, Nutsedge: 0
[9]; Rate 250 g/ha, Preemergence
  Plant response rating, Nutsedge: 0
[9]; Rate 500 g/ha, Postemergence
  Plant response rating, Nutsedge: 0
[9]; Rate 500 g/ha, Preemergence
  Plant response rating, Nutsedge: 0
Rape (Brassica napus); Rate 125 g/ha, Postemergence
  Plant response rating, Rape: 5
Rape (Brassica napus); Rate 125 g/ha, Preemergence
  Rape plant response rating: 0
Rape (Brassica napus); Rate 250 g/ha, Postemergence
  Plant response rating, Rape: 6
Rape (Brassica napus); Rate 250 g/ha, Preemergence
  Plant response rating, Rape: 0
Rape (Brassica napus); Rate 500 g/ha, Postemergence
  Plant response rating, Rape: 7
Rape (Brassica napus); Rate 500 g/ha, Preemergence
  Plant response rating, Rape: 0
Soybean (Glycine max); Rate 125 g/ha, Postemergence
  Plant response rating, Soybean: 3
Soybean (Glycine max); Rate 125 g/ha, Preemergence
  Soybean plant response rating: 0
Soybean (Glycine max); Rate 250 g/ha, Postemergence
  Plant response rating, Soybean: 3
Soybean (Glycine max); Rate 250 g/ha, Preemergence
  Plant response rating, Soybean: 0
Soybean (Glycine max); Rate 500 g/ha, Postemergence
  Plant response rating, Soybean: 5
Soybean (Glycine max); Rate 500 g/ha, Preemergence
  Plant response rating, Soybean: 0
[10]; Rate 125 g/ha, Postemergence
  Plant response rating, Sugarbeets: 3
[10]; Rate 125 g/ha, Preemergence
  Sugarbeets plant response rating: 0
[10]; Rate 250 g/ha, Postemergence
  Plant response rating, Sugarbeets: 8
[10]; Rate 250 g/ha, Preemergence
  Plant response rating, Sugarbeets: 0
[10]; Rate 500 g/ha, Postemergence
  Plant response rating, Sugarbeets: 8
[10]; Rate 500 g/ha, Preemergence
  Plant response rating, Sugarbeets: 1
[11]; Rate 125 g/ha, Postemergence
  Plant response rating, Velvetleaf: 1
[11]; Rate 125 g/ha, Preemergence
  Velvetleaf plant response rating: 0
[11]; Rate 250 g/ha, Postemergence
  Plant response rating, Velvetleaf: 1
[11]; Rate 250 g/ha, Preemergence
  Plant response rating, Velvetleaf: 0
[11]; Rate 500 g/ha, Postemergence
  Plant response rating, Velvetleaf: 2
[11]; Rate 500 g/ha, Preemergence
  Plant response rating, Velvetleaf: 0
[12]; Rate 125 g/ha, Postemergence
  Plant response rating, Wheat: 0
[12]; Rate 125 g/ha, Preemergence
  Wheat plant response rating: 0
[12]; Rate 250 g/ha, Postemergence
  Plant response rating, Wheat: 0
[12]; Rate 250 g/ha, Preemergence
  Plant response rating, Wheat: 0
[12]; Rate 500 g/ha, Postemergence
  Plant response rating, Wheat: 0
[12]; Rate 500 g/ha, Preemergence
  Plant response rating, Wheat: 0
Wild oat (Avena fatua); Rate 125 g/ha, Postemergence
  Plant response rating, Wild oats: 0
Wild oat (Avena fatua); Rate 125 g/ha, Preemergence
  Wild oats plant response rating: 0
Wild oat (Avena fatua); Rate 250 g/ha, Postemergence
  Plant response rating, Wild oats: 0
Wild oat (Avena fatua); Rate 250 g/ha, Preemergence
  Plant response rating, Wild oats: 0
Wild oat (Avena fatua); Rate 500 g/ha, Postemergence
  Plant response rating, Wild oats: 0
Wild oat (Avena fatua); Rate 500 g/ha, Preemergence
  Plant response rating, Wild oats: 0
[13]; [16]
  Plant response rating, Barnyardgrass: 1
[13]; [17]
  Plant response rating, Barnyardgrass: 1
[13]; [18]
  Plant response rating, Barnyardgrass: 2
[14]; [16]
  Plant response rating, Ducksalad: 0
[14]; [17]
  Plant response rating, Ducksalad: 0
[14]; [18]
  Plant response rating, Ducksalad: 2
Rice (Oryza sativa); [16]
  Plant response rating, Rice: 0
Rice (Oryza sativa); [17]
  Plant response rating, Rice: 0
Rice (Oryza sativa); [18]
  Plant response rating, Rice: 0
[15]; [16]
  Plant response rating, S. Flatsedge: 1
[15]; [17]
  Plant response rating, S. Flatsedge: 2
[15]; [18]
  Plant response rating, S. Flatsedge: 4
